Source: article PMC7584622, “Sensing of autoinducer-2 by functionally distinct receptors in prokaryotes” (Nature Communications, 2020)
Where “and” joins values, the source holds several entries; their conditions need not be identical. Equal values may be shown once.

Experiments:
PctC-LBD = PctC-LBD (Pseudomonas aeruginosa, UniProt Q9HW93); assay: ITC binding to PctC-LBD; conditions: 700 μM DPD/AI-2 into 70 μM PctC-LBD, minor heats, not certain whether they reflect binding
Description: ITC experiments were performed at 20 °C using a Nano ITC Standard Volume isothermal calorimeter (TA Instruments, New Castle, DE). […] The stirring speed was 200 r.p.m. and 25 injections were used each experiment. Three independent experiments were performed for each sample. […] ITC data were analyzed and fit with a one-site independent binding model using the NanoAnalyze software version 3.4 provided by the manufacturer, with the heat of dilution subtracted from the experimental titrations before data analysis.

PctA-LBD R126A = target: T1, PctA-LBD R126A (Pseudomonas aeruginosa, UniProt G3XD24, R126A); assay: biochemical; assay type: binding; conditions: PctA-LBD R126A 70 μM; DPD/AI-2 700 μM
T1 construct: Amino acids 30-278 and 36-360 of PctA and TlpQ, respectively; His6 (N, cleaved yes); made in house; host or cells: E. coli BL21(DE3) (pET-28a derivative)

rpHK1S-Z16-LBD = rpHK1S-Z16-LBD (Rhodopseudomonas palustris, UniProt Q6N3S7); assay: ITC binding to rpHK1S-Z16-LBD; set-up: species or system R. palustris; conditions: 700 μM DPD/AI-2 into 70 μM rpHK1S-Z16-LBD
PctA-LBD Y144A = target: T2, PctA-LBD Y144A (Pseudomonas aeruginosa, UniProt G3XD24, Y144A); assay: biochemical; assay type: binding; conditions: PctA-LBD Y144A 70 μM; DPD/AI-2 700 μM
T2 construct: Amino acids 30-278 and 36-360 of PctA and TlpQ, respectively; His6 (N, cleaved yes); made in house; host or cells: E. coli BL21(DE3) (pET-28a derivative)

PctA-LBD Y101A = target: T3, PctA-LBD Y101A (Pseudomonas aeruginosa, UniProt G3XD24, Y101A); assay: biochemical; assay type: binding; conditions: PctA-LBD Y101A 70 μM; DPD/AI-2 700 μM
T3 construct: Amino acids 30-278 and 36-360 of PctA and TlpQ, respectively; His6 (N, cleaved yes); made in house; host or cells: E. coli BL21(DE3) (pET-28a derivative)

PctA-LBD = target: T4, PctA-LBD (Pseudomonas aeruginosa, UniProt G3XD24); assay: ITC binding to PctA-LBD; set-up: species or system P. aeruginosa; conditions: 700 μM DPD/AI-2 into 70 μM PctA-LBD (WT); 20 °C; normal conditions; mean ± s.d. of three in text/figure, single experiments in source data
T4 construct: Amino acids 30-278 and 36-360 of PctA and TlpQ, respectively; His6 (N, cleaved yes); made in house; host or cells: E. coli BL21(DE3) (pET-28a derivative)
T4 sequence (G3XD24 30-278): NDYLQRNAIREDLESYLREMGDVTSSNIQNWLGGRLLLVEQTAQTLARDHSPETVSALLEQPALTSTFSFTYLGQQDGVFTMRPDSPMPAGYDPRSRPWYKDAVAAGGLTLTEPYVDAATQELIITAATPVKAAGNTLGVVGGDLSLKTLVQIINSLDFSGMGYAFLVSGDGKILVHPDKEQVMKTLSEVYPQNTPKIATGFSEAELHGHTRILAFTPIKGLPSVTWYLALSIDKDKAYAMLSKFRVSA

T1 sequence (G3XD24 30-278 R126A): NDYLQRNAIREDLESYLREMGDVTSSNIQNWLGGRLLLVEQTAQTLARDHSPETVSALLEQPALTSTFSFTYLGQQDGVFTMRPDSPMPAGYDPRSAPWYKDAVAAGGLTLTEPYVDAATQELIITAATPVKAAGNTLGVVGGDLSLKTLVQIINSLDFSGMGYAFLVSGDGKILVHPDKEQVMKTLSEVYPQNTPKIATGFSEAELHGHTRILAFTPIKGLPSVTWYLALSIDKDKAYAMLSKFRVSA
rpHK1S-Z16-LBD, sequence (Q6N3S7 entry or part of it): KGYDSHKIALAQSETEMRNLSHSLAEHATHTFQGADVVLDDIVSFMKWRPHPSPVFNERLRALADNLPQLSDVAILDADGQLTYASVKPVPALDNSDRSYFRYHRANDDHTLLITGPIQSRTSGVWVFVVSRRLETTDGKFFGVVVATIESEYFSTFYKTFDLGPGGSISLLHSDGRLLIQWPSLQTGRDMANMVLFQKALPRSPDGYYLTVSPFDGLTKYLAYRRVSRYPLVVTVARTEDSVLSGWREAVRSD
T3 sequence (G3XD24 30-278 Y101A): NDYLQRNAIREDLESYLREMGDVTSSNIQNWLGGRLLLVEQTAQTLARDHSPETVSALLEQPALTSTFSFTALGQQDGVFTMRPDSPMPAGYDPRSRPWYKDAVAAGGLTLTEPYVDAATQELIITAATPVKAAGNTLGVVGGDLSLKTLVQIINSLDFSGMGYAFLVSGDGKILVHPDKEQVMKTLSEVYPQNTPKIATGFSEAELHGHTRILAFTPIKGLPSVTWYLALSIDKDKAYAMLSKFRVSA
PctC-LBD, sequence (Q9HW93 32-279): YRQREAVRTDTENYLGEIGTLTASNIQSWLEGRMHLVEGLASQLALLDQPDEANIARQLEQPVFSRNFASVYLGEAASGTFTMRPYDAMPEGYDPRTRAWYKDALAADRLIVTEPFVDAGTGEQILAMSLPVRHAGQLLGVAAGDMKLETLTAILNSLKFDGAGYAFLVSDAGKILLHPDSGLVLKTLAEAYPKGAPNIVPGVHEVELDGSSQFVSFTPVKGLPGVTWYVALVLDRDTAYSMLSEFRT
T2 sequence (G3XD24 30-278 Y144A): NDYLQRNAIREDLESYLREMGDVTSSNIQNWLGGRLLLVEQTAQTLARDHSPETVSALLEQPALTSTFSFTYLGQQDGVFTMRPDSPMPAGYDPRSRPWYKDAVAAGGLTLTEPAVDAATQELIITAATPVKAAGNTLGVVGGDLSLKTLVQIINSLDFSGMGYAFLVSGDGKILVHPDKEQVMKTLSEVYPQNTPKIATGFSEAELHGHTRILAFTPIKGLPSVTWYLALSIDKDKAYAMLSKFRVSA

## CC(=O)C(=O)C(O)CO (stereo not drawn) [DPD/AI-2, 4,5-dihydroxy-2,3-pentanedione]
PctC-LBD
  Kd: 94 µM and 118 µM and 86 µM
PctA-LBD R126A
  Kd: 49 µM and 33 µM and 41 µM
rpHK1S-Z16-LBD
  Kd: 0.13 µM and 0.19 µM and 0.21 µM
PctA-LBD Y144A
  Kd: 16 µM and 14 µM and 12 µM
PctA-LBD Y101A
  Kd: 33 µM and 42 µM and 34 µM
PctA-LBD
  Kd: 0.12 µM and 0.16 µM and 0.13 µM
